Data on twelve compounds can be found in patent US11370785B2, “Multicyclic compounds as farnesoid X receptor modulators” (BRISTOL-MYERS SQUIBB COMPANY, priority 2017, dated 2022).

pEC50: −log10 of the molar value.

The first experiment deals with Fgf15. Briefly: Acute mouse in vivo assay, Fgf15 gene expression in ileum. The settings on record: 3 mg/kg single oral dose, @ 6 h. As for the experimental part: Acute Mouse In Vivo Assay:
Male, C57BL6/NTac mice, weighing 25-28 g, are purchased from Taconic Labs (Hudson, N.Y.) and maintained on Teklad Global 18% Protein Rodent Diet (Harlan Laboratories). After 1 week acclimation, mice are sorted into groups based upon body weight. Mice are administered a single oral dose of vehicle or experimental compound. Systemic compound exposure is evaluated in plasma derived from blood collected via the submandibular vein at 1 hour post-dose, and at study termination (6 h). At study termination, the animals are euthanized and rapidly dissected. The medial lobe of the liver is divided, with one half being homogenized and analyzed for compound exposure, and the other half saved in RNAlater (Thermo-Fisher Scientific). The ileum is also dissected and preserved in RNAlater. Tissue samples in RNAlater are homogenized with MP Biomedicals' beads. […] RNA Concentration is determined with the Nano-Drop 8000 Spectrophotometer (Thermo Fisher). […] Mouse genes analyzed include Nr0b2 (which encodes the small heterodimer partner, SHP), Abcb11 (which encodes the bile salt excretion pump, BSEP), Cyp7a1, & Cyp8b1 in liver, and Fgf15, Fabp6 (which encodes ileal bile acid binding protein, I-BABP), Slc51a (which encodes organic solute transporter alpha subunit, OSTA), and Slc51b (which encodes organic solute transporter beta subunit, OSTB) in the ileum. […]
As to `O=C(O)c1cc(C(F)(F)F)c2cc(N3CCC4(CC3)CC(Cc3c(-c5ccccc5C(F)(F)F)noc3C3CC3)C4)ccc2n1` [Example 4, 6-(2-((5-Cyclopropyl-3-(2-(trifluoromethyl)phenyl)isoxazol-4-yl)methyl)-7-azaspiro[3.5]nonan-7-yl)-4-(trifluoromethyl)quinoline-2-carboxylic acid], the “Fgf15 expression, fold increase relative to vehicle control” value is given as “+24 x”.

The target in a further experiment is T1, human FXR (Homo sapiens, UniProt Q96RI1).
T1 construct: expressed in transfected cells; host or cells: HEK293 cells stably carrying a 5xGal4-response-element firefly luciferase reporter, transiently transfected with the pcDNA3.1-Gal4-FXR plasmid
T1 sequence (Q96RI1 262-486 limits assumed): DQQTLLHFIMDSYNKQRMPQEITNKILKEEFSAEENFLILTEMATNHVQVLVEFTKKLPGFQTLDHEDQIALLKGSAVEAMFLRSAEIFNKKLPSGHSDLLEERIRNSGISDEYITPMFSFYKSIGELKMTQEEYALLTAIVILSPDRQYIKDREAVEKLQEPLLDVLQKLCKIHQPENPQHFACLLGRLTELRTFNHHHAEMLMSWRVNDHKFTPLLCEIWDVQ
The experiment in a line: transient human FXR/Gal4-luciferase reporter assay. Format: cell-based. As to conditions: Gal4-hFXR reporter in HEK293 cells; read-out: HLE GAL-FXR EC50. An outline of the steps: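 HEK293 cells stably carrying a 5×Gal4-response-element firefly luciferase reporter, transiently transfected with a CMV-driven Gal4 DNA-binding domain–human FXR ligand-binding domain fusion, were treated overnight at 37 °C with serially diluted compounds. Luminescence was read by Steady-Glo; DMSO background was subtracted and signal expressed as percent of the 8 μM GW-4064 response.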
A general note: In a reporter assay the amount or activity of a reporter protein is the signal.
For `O=C(O)c1cc(C(F)(F)F)c2cc(N3CCC4(CC3)CC(Cc3c(-c5ccccc5C(F)(F)F)noc3C3CC3)C4)ccc2n1` [Example 4, 6-(2-((5-Cyclopropyl-3-(2-(trifluoromethyl)phenyl)isoxazol-4-yl)methyl)-7-azaspiro[3.5]nonan-7-yl)-4-(trifluoromethyl)quinoline-2-carboxylic acid], the pEC50 is 7.59.

Staying with this experiment, now noted: Gal4-hFXR reporter in HEK293 cells; relative to 8 μM GW-4064; read-out: FXR EC50.
In the case of `COCCN(C)C(=O)c1cc(OC2CCC2)c2cc(N3CCC4(CC3)CC(Cc3c(-c5ccccc5C(F)(F)F)noc3C3CC3)C4)ccc2n1` [Example 182], the pEC50 is 7.62. On the same count and under the same terms, the figure for `CCN(CC)C(=O)c1cc(OC2CCC2)c2cc(N3CCC4(CC3)CC(Cc3c(-c5ccccc5C(F)(F)F)noc3C3CC3)C4)ccc2n1` [Example 183] is 7.29; for `CCN(C)C(=O)c1cc(OC2CCC2)c2cc(N3CCC4(CC3)CC(Cc3c(-c5ccccc5C(F)(F)F)noc3C3CC3)C4)ccc2n1` [Example 184] it is 7.43; for `O=C(c1cc(OC2CCC2)c2cc(N3CCC4(CC3)CC(Cc3c(-c5ccccc5C(F)(F)F)noc3C3CC3)C4)ccc2n1)N1CC(F)(F)C1` [Example 186] it is 5.71.

On to `O=C(c1cc(OC2CCC2)c2cc(N3CCC4(CC3)CC(Cc3c(-c5ccccc5C(F)(F)F)noc3C3CC3)C4)ccc2n1)N1CCC1` [Example 187], for which the pEC50 was 6.37.

Regarding `O=C(c1cc(OC2CCC2)c2cc(N3CCC4(CC3)CC(Cc3c(-c5ccccc5C(F)(F)F)noc3C3CC3)C4)ccc2n1)N1CCCC1` [Example 188], the pEC50 was 7.12. On to `O=C(c1cc(OC2CCC2)c2cc(N3CCC4(CC3)CC(Cc3c(-c5ccccc5C(F)(F)F)noc3C3CC3)C4)ccc2n1)N1CCCCC1` [Example 189], for which the pEC50 is 7.47.

For `O=C(c1cc(OC2CCC2)c2cc(N3CCC4(CC3)CC(Cc3c(-c5ccccc5C(F)(F)F)noc3C3CC3)C4)ccc2n1)N1CCC(O)CC1` [Example 190], the pEC50 was 7.96. Same read-out and setting: the figure for `CN(C)C(=O)c1cc(C(F)(F)F)c2cc(N3CCC4(CC3)CC(=Cc3c(-c5ccccc5C(F)(F)F)noc3C(F)(F)F)C4)ccc2n1` [Example 191] is 6.51; for `CN(C)C(=O)c1cc(F)c2nc(N3CCC4(CC3)CC(=Cc3c(-c5c(Cl)cncc5Cl)noc3C(F)(F)F)C4)sc2c1` [Example 192] it is 6.17; for `O=C(O)c1ccc2cc(N3CCC4(CC3)CC(=Cc3c(-c5ccccc5C(F)(F)F)noc3C(F)(F)F)C4)ccc2n1` [Example 193] it is 6.30.

In general, pEC50 refers to the negative decadic logarithm of the EC50, by convention in mol/L.
